Experimental data reported in PubChem BioAssay (NCI).
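These data come from cells grown in 96-well plates and exposed to compound for 48 hours at five concentrations. The concentration for full growth arrest is given as TGI.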

How the values were obtained:
Assay in all cases: NCI anticancer screen, dose series, 48 h
BT-549 breast = system: BT-549 breast
COLO 205 colon = system: COLO 205 colon
HCC-2998 colon = system: HCC-2998 colon
HCT-15 colon = system: HCT-15 colon
HL-60(TB) leukemia = system: HL-60(TB) leukemia
IGROV1 ovarian = system: IGROV1 ovarian
MDA-MB-231 breast = system: MDA-MB-231 breast
MOLT-4 leukemia = system: MOLT-4 leukemia
NCI-H460 lung = system: NCI-H460 lung
RPMI-8226 leukemia = system: RPMI-8226 leukemia
SK-MEL-2 melanoma = system: SK-MEL-2 melanoma
SN12C renal = system: SN12C renal
SNB-75 CNS = system: SNB-75 CNS
SR leukemia = system: SR leukemia
TK-10 renal = system: TK-10 renal
U251 CNS = system: U251 CNS
UACC-257 melanoma = system: UACC-257 melanoma
MALME-3M melanoma = system: MALME-3M melanoma
MDA-N = system: MDA-N

SMILES | TGI (BT-549 breast) | TGI (COLO 205 colon) | TGI (HCC-2998 colon) | TGI (HCT-15 colon) | TGI (HL-60(TB) leukemia) | TGI (IGROV1 ovarian) | TGI (MDA-MB-231 breast) | TGI (MOLT-4 leukemia) | TGI (NCI-H460 lung) | TGI (RPMI-8226 leukemia) | TGI (SK-MEL-2 melanoma) | TGI (SN12C renal) | TGI (SNB-75 CNS) | TGI (SR leukemia) | TGI (TK-10 renal) | TGI (U251 CNS) | TGI (UACC-257 melanoma) | TGI (MALME-3M melanoma) | TGI (MDA-N)
O=C(CC(=O)N1N=C(N(c2ccccc2)c2ccccc2)CC1c1ccccc1)Nc1ccc(Cl)cc1 (configuration not stated) | > 100 µM | > 100 µM | > 100 µM | > 100 µM | > 100 µM | > 100 µM | > 100 µM | > 100 µM | > 100 µM | > 100 µM | > 100 µM | > 100 µM | > 100 µM | > 100 µM | > 100 µM | > 100 µM | > 100 µM |  | 
COC(=O)c1c[nH]c2c1-c1cc(C(=O)OCc3ccccc3)n(S(=O)(=O)c3ccc(C)cc3)c1C(=O)C2=O | 0.342 µM | 2.08 µM | 1.9 µM | 0.438 µM | > 100 µM | 0.955 µM | 0.401 µM |  | 2.69 µM | 2.83 µM | 0.521 µM | 0.481 µM | 0.389 µM | 3.51 µM | 4.1 µM | 1.13 µM | 0.311 µM | 0.222 µM | 
CCN(CC)CCCNc1nc(=O)[nH]c(C)c1C(=O)Nc1ccc2c(c1)c1ccccc1n2CC |  | > 100 µM | > 100 µM | > 100 µM | > 100 µM | > 100 µM | > 100 µM | > 100 µM |  | > 100 µM | > 100 µM | > 100 µM | > 100 µM |  | > 100 µM | > 100 µM | > 100 µM | > 100 µM | > 100 µM
O=C(O)CN1CCN(CC(=O)N2CCN(C(=O)OCc3ccccc3)CC2)CCN(CC(=O)O)CCN(CC(=O)N2CCN(C(=O)OCc3ccccc3)CC2)CC1 | > 100 µM | > 100 µM | > 100 µM | > 100 µM | > 100 µM | > 100 µM | > 100 µM | > 100 µM | > 100 µM | > 100 µM | > 100 µM | > 100 µM | > 100 µM | > 100 µM | > 100 µM | > 100 µM | > 100 µM | > 100 µM | 
CC1Cc2cc(O)c(O)cc2-c2cc(O)c(O)cc2CC1C (configuration not stated) |  | 32.1 µM | 43.1 µM | 36.1 µM |  | 47 µM | 24.5 µM | 32.3 µM | 42.7 µM | > 100 µM | 15 µM | 49 µM | > 100 µM | 33 µM | 86.4 µM | 32.6 µM | 29.1 µM | 20.6 µM | 11.7 µM
CC(=O)C(CN(C)C)C(c1ccccc1)c1c(O)c2ccccc2oc1=O (configuration not stated) |  | > 100 µM | > 100 µM | > 100 µM | > 100 µM | > 100 µM |  | > 100 µM | > 100 µM | > 100 µM | > 100 µM | > 100 µM | 88.5 µM | > 100 µM | > 100 µM | > 100 µM | > 100 µM | > 100 µM | 
NC(=O)N/N=C(/Cc1nc2ccc(C(=O)c3ccccc3)cc2[nH]c1=O)C(=O)Nc1ccc(C(F)(F)F)cc1[N+](=O)[O-] |  | > 100 µM | > 100 µM | > 100 µM | > 100 µM | > 100 µM |  | > 100 µM | > 100 µM | > 100 µM | > 100 µM | > 100 µM | 97.3 µM | > 100 µM | > 100 µM | > 100 µM | > 100 µM | > 100 µM | 
COc1ccc2c(c1)CC1c3c(ccc(OC)c3O)CC2N1C (configuration not stated) |  | 34.8 µM | 30.8 µM | > 100 µM | 40.3 µM | > 100 µM |  | 73.8 µM | 38.8 µM | 53.2 µM | 37.1 µM | > 100 µM | > 100 µM | 45.4 µM | > 100 µM | > 59.3 µM | 50.6 µM | 29.4 µM | 
COc1ccc(/C=C/C(=O)CC(=O)/C=C/c2ccc(OC)cc2)cc1 |  | > 100 µM | > 100 µM | > 100 µM | 64.5 µM | > 100 µM | > 100 µM | 70.8 µM | > 100 µM | > 100 µM | > 100 µM | > 100 µM | > 100 µM |  |  | > 100 µM | > 100 µM | > 100 µM | > 100 µM
O=S(=O)([O-])[O-].[Cl-].[NH2-].[NH2-].[NH2-].[NH2-].[Ru+3].c1ccncc1 |  | > 100 µM | > 100 µM | > 100 µM | > 100 µM | > 100 µM |  | > 100 µM | > 100 µM | > 100 µM | > 100 µM | > 100 µM | > 100 µM | > 100 µM | > 100 µM | > 100 µM | > 100 µM | > 100 µM | 
CCCCCCCCCCCCCCCC(=O)OCC1OC(OC)C2NP(=O)(N(CCCl)CCCl)OC1C2O (configuration not stated) | 5.96 µM | 13.5 µM | 9.46 µM | 14.2 µM | 4.48 µM | > 54.9 µM |  | 0.968 µM | 14.5 µM | 15.9 µM | 24.3 µM | 24.8 µM | 15.2 µM | 1.78 µM | 31.7 µM | > 19.5 µM | 42.9 µM | 34.1 µM | 
